Data from patent publication US9126969B2, “Pyrazolylbenzimidazole derivatives, compositions containing them and use thereof” (AVENTIS PHARMA S.A., priority 2006, dated 2015).
Structures can show the parent of a compound that is named as a salt. Where two headings read alike, the source gives them in different places.

Experiments:
[1] = system: HeLa cells (tumor cell line); test: FDA-PI viability/proliferation assay on HeLa tumor cells; format: cell-based; details: for IC50: Homo sapiens; for ratio: PBL viability IC50 / HeLa viability IC50
Experimental: (§1) The compounds were tested in a viability/proliferation assay for comparing, under similar conditions, their activity on proliferating tumor cells and on quiescent normal cells.
(§2) The HeLa cells (tumor cell line) and the PBLs (quiescent cells, peripheral blood lymphocytes) originate, respectively, from the ATCC and from Cambrex.
(§3) The HeLa cells (tumor cell line) are seeded at 0.25×10^6 cells/well in 2 mL of culture medium. The products are added 24 h after seeding. After incubation for 48 h in the presence of the products, all the HeLa cells (supernatant and adherent cells) are recovered, centrifuged and taken up in PBS containing a final concentration of 0.25 μg/mL of fluorescein diacetate (FDA), 10 μg/mL of propidium iodide (PI) and 3 μL/mL of 10 μm beads. The cell suspensions are filtered immediately before analysis on the Facscalibur. The PBLs are seeded at 10^6 cells/well in 2 mL of culture medium. The products are added 1-4 h after seeding. After incubation for 48 h in the presence of the products, half the cell suspension is recovered and incubated in the presence of a final concentration of 0.25 μg/mL of fluorescein diacetate (FDA), 10 μg/mL of propidium iodide (PI) and 2 μL/mL of 10 μm beads.
(§4) The FDA which enters the cells is cleaved by esterases only in live cells, releasing the fluorescein which emits a fluorescent radiation in the green range when it is excited (generally by UV radiation). The PI enters only the dead cells, the membrane of which is permeabilized, and emits a fluorescent radiation in the red range when it is excited. The beads are used as tracers for the dead cells having already disappeared at the time of reading.
(§5) Calculation: The % of viable cells relative to the nontreated control is given by: (number of live cells/number of live cells in the control)/(number of beads/number of beads in the control)×100 for the HeLa cells, and by: (number of live cells/number of live cells in the control)×100 for the quiescent PBLs. The products according to the invention are tested at several concentrations and an IC50, corresponding to the concentration which causes 50% of the maximum inhibition, is calculated.

[2] = system: PBLs (quiescent cells, peripheral blood lymphocytes); test: FDA-PI viability assay on quiescent PBLs; format: cell-based; details: Lymphocyte, 48 h incubation, read-out: Viability PBL IC50
Experimental: as §1, §2, §3, §4, §5

[3] = HeLa cells, 48 h incubation, read-out: Viability HeLa IC50
[4] = HeLa, read-out: IC50 values on the tumor cells

SMILES	IC50 [1, 3]	ratio [1]	IC50 [2]	IC50 [1, 4]
Cl.O=C(Nc1c[nH]nc1-c1nc2cc(F)c(N3CCOCC3)cc2[nH]1)N1CCCCC1 [Example 1, N-[3-(5-fluoro-6-morpholin-4-yl-1H-benzimidazol-2-yl)-1H-pyrazol-4-yl]piperidine-1-carboxamide Hydrochloride]	107 nM	70	7550 nM	–
CCN(CC)C(=O)Nc1c[nH]nc1-c1nc2cc(F)c(N3CCOCC3)cc2[nH]1 [Example 2, 1,1-diethyl-3-[3-(5-fluoro-6-morpholin-4-yl-1H-benzimidazol-2-yl)-1H-pyrazol-4-yl]urea Trifluoroacetate]	–	–	–	< 100 nM
CCN(CC)C(=O)Nc1c[nH]nc1-c1nc2cc(F)c(OCCN3CCCCC3)cc2[nH]1 [Example 4, 1,1-diethyl-3-{3-[5-fluoro-6-(2-piperidin-1-ylethoxy)-1H-benzimidazol-2-yl]-1H-pyrazol-4-yl}urea Trifluoroacetate]	–	–	–	< 100 nM
CCN(CC)C(=O)Nc1c[nH]nc1-c1nc2cc(F)c(OCCCN(C)C)cc2[nH]1 [Example 5, 3-{3-[6-(3-dimethylaminopropoxy)-5-fluoro-1H-benzimidazol-2-yl]-1H-pyrazol-4-yl}-1,1-diethylurea Trifluoroacetate]	–	–	–	< 100 nM
CCN(CC)C(=O)Nc1c[nH]nc1-c1nc2cc(F)c(OCCCN3CCCCC3)cc2[nH]1 [Example 6, 1,1-diethyl-3-{3-[5-fluoro-6-(3-piperidin-1-ylpropoxy)-1H-benzimidazol-2-yl]-1H-pyrazol-4-yl}urea Hydrochloride]	–	–	–	< 100 nM
CC(C)N(C(=O)Nc1c[nH]nc1-c1nc2cc(F)c(N3CCCOCC3)cc2[nH]1)C(C)C [Example 8, 3-[3-(5-fluoro-6-perhydro-1,4-oxazepan-4-yl-1H-benzimidazol-2-yl)-1H-pyrazol-4-yl]-1,1-diisopropylurea]	–	–	–	< 100 nM
CCN(CC)C(=O)Nc1c[nH]nc1-c1nc2cc(OCCCCN3CCCCC3)c(F)cc2[nH]1 [Example 9, 1,1-diethyl-3-{3-[6-fluoro-5-(4-piperidin-1-ylbutoxy)-1H-benzimidazol-2-yl]-1H-pyrazol-4-yl}urea Trifluoroacetate]	–	–	–	< 100 nM
CCN(CC)C(=O)Nc1c[nH]nc1-c1nc2cc(F)c(N3CCCOCC3)cc2[nH]1 [Example 11, 1,1-diethyl-3[3-(5-fluoro-6-perhydro-1,4-oxazepin-4-yl-1H-benzimidazol-2-yl)-1H-pyrazol-4-yl]urea]	–	–	–	< 100 nM
CN1CCN(c2cc3[nH]c(-c4n[nH]cc4NC(=O)N4CCCCC4)nc3cc2F)CC1.O=C(O)C(F)(F)F [Example 12, N-{3-[5-fluoro-6-(4-methylpiperazin-1-yl)-1H-benzimidazol-2-yl]-1H-pyrazol-4-yl}piperidine-1-carboxamide Trifluoroacetate]	56 nM	62	3490 nM	–
CCN(CC)C(=O)Nc1c[nH]nc1-c1nc2cc(F)c(N3CCN(C)CC3)cc2[nH]1 [Example 13, 1,1-diethyl-3-{3-[5-fluoro-6-(4-methylpiperazin-1-yl)-1H-benzimidazol-2-yl]-1H-pyrazol-4-yl}urea]	–	–	–	< 100 nM
CCN(CC)C(=O)Nc1c[nH]nc1-c1nc2cc(F)c(NCCN(C)C)cc2[nH]1 [Example 15, 3-{3-[6-(2-dimethylaminoethylamino)-5-fluoro-1H-benzimidazol-2-yl]-1H-pyrazol-4-yl}-1,1-diethylurea Trifluoroacetate]	–	–	–	< 100 nM
CC(C)N(C(=O)Nc1c[nH]nc1-c1nc2cc(F)c(N3CCOCC3)cc2[nH]1)C(C)C [Example 16, 3-[3-(5-fluoro-6-morpholin-4-yl-1H-benzimidazol-2-yl)-1H-pyrazol-4-yl]-1,1-diisopropylurea]	–	–	–	< 100 nM
CN1CCCN(c2cc3[nH]c(-c4n[nH]cc4NC(=O)N4CCCCC4)nc3cc2F)CC1.O=C(O)C(F)(F)F [Example 17, N-{3-[5-fluoro-6-(4-methylperhydro-1,4-diazepin-1-yl)-1H-benzimidazol-2-yl]-1H-pyrazol-4-yl}-piperidine-1-carboxamide Trifluoroacetate]	100 nM	42	4250 nM	–
CCN(CC)C(=O)Nc1c[nH]nc1-c1nc2cc(F)c(N3CCCN(C)CC3)cc2[nH]1 [Example 18, 1,1-diethyl-3-{3-[5-fluoro-6-(4-methylperhydro-1,4-diazepin-1-yl)-1H-benzimidazol-2-yl]-1H-pyrazol-4-yl}urea]	39 nM	96	3760 nM	–
CCN(CC)C(=O)Nc1c[nH]nc1-c1nc2ccc(N3CCN(C)CC3)cc2[nH]1 [Example 19, 1,1-diethyl-3-{3-[6-(4-methylpiperazin-1-yl)-1H-benzimidazol-2-yl]-1H-pyrazol-4-yl}urea]	–	–	–	< 100 nM
CN1CCN(c2ccc3nc(-c4n[nH]cc4NC(=O)N4CCCCC4)[nH]c3c2)CC1 [Example 20, N-{3-[6-(4-methylpiperazin-1-yl)-1H-benzimidazol-2-yl]-1H-pyrazol-4-yl}piperidine-1-carboxamide]	–	–	–	< 100 nM
CN(C)CCCOc1cc2[nH]c(-c3n[nH]cc3NC(=O)N3CCNCC3)nc2cc1F [Example 31, N-{3-[6-(3-Dimethylaminopropoxy)-5-fluoro-1H-benzimidazol-2-yl]-1H-pyrazol-4-yl}piperazine-1-carboxamide]	–	–	–	5000 to 30000 nM
CCN(C(=O)Nc1c[nH]nc1-c1nc2cc(F)c(OCCCN(C)C)cc2[nH]1)C(C)C [Example 33, 3-{3-[6-(3-dimethylaminopropoxy)-5-fluoro-1H-benzimidazol-2-yl]-1H-pyrazol-4-yl}-1-ethyl-1-isopropylurea]	–	–	–	< 100 nM
CC(C)N(C(=O)Nc1c[nH]nc1-c1nc2ccc(N3CCN(C)CC3)cc2[nH]1)C(C)C [Example 34, 1,1-Diisopropyl-3-{3-[6-(4-methylpiperazin-1-yl)-1H-benzimidazol-2-yl]-1H-pyrazol-4-yl}urea]	–	–	–	< 100 nM
CCN(C(=O)Nc1c[nH]nc1-c1nc2ccc(N3CCN(C)CC3)cc2[nH]1)C(C)C [Example 37, 1-Ethyl-1-isopropyl-3-{3-[6-(4-methylpiperazin-1-yl)-1H-benzimidazol-2-yl]-1H-pyrazol-4-yl}urea]	–	–	–	< 100 nM
O=C(Nc1c[nH]nc1-c1nc2cc(F)c(N3CCCOCC3)cc2[nH]1)N1CCCCC1 [Example 38]	85 nM	108	9170 nM	–
CC(C)N(C(=O)Nc1c[nH]nc1-c1nc2cc(F)c(N3CCN(C)CC3)cc2[nH]1)C(C)C [Example 39, 3-{3-[5-Fluoro-6-(4-methylpiperazin-1-yl)-1H-benzimidazol-2-yl]-1H-pyrazol-4-yl}-1,1-diisopropylurea trifluoroacetate]	–	–	–	< 100 nM
CC(C)N(C(=O)Nc1c[nH]nc1-c1nc2cc(F)c(N3CCCN(C)CC3)cc2[nH]1)C(C)C [Example 40, 3-{3-[5-Fluoro-6-(4-methylperhydro-1,4-diazepin-1-yl)-1H-benzimidazol-2-yl]-1H-pyrazol-4-yl}-1,1-diisopropylurea]	–	–	–	< 100 nM
